# Assay results from publication PMC6795057, “Plumbagin Prevents Secretory Diarrhea by Inhibiting CaCC and CFTR Channel Activities” (Frontiers in Pharmacology, 2019).
# pIC50: −log10 of the molar value.
# Key:
# [1] = target: T1, TMEM16A (transmembrane protein 16A) (Homo sapiens, UniProt Q5XXA6); experiment: YFP iodide-influx fluorescence quenching in TMEM16A-expressing FRT cells; Eact-stimulated short-circuit current; assay type: cell-based
# T1 construct: gene ANO1
# T1 sequence (Q5XXA6 1-986): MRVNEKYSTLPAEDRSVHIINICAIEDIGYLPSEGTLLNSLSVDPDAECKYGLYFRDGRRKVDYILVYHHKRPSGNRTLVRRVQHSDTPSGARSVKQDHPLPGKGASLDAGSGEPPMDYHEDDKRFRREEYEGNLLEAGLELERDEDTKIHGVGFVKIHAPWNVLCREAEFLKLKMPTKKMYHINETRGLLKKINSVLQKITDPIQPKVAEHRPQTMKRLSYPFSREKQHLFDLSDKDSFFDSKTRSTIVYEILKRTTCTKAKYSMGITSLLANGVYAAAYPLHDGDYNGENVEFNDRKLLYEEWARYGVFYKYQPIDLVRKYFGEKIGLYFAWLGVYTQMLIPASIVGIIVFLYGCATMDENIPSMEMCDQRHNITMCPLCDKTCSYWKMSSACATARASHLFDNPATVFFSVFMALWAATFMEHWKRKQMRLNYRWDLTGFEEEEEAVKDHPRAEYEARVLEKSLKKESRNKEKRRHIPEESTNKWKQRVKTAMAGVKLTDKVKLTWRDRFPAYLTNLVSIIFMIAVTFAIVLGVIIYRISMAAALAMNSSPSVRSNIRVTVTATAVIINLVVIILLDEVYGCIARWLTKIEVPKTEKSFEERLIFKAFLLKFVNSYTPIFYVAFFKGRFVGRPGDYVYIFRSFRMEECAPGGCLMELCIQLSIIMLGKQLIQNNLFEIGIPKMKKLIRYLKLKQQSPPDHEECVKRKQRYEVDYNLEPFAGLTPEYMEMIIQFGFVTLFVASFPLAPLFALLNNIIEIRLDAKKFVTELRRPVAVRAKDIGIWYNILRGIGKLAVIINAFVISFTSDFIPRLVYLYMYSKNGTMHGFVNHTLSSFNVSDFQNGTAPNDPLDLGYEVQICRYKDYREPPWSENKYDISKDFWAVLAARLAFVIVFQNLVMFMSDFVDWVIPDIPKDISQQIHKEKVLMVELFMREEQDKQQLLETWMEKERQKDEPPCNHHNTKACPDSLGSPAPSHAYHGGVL
# [2] = target: CFTR (cystic fibrosis transmembrane conductance regulator) (Homo sapiens, UniProt P13569); experiment: short-circuit current in HT-29 cells, FSK-stimulated; also inhibits current with genistein (direct activator, IC50 […]); assay type: cell-based
# Sequence of CFTR (cystic fibrosis transmembrane conductance regulator) (P13569 whole entry): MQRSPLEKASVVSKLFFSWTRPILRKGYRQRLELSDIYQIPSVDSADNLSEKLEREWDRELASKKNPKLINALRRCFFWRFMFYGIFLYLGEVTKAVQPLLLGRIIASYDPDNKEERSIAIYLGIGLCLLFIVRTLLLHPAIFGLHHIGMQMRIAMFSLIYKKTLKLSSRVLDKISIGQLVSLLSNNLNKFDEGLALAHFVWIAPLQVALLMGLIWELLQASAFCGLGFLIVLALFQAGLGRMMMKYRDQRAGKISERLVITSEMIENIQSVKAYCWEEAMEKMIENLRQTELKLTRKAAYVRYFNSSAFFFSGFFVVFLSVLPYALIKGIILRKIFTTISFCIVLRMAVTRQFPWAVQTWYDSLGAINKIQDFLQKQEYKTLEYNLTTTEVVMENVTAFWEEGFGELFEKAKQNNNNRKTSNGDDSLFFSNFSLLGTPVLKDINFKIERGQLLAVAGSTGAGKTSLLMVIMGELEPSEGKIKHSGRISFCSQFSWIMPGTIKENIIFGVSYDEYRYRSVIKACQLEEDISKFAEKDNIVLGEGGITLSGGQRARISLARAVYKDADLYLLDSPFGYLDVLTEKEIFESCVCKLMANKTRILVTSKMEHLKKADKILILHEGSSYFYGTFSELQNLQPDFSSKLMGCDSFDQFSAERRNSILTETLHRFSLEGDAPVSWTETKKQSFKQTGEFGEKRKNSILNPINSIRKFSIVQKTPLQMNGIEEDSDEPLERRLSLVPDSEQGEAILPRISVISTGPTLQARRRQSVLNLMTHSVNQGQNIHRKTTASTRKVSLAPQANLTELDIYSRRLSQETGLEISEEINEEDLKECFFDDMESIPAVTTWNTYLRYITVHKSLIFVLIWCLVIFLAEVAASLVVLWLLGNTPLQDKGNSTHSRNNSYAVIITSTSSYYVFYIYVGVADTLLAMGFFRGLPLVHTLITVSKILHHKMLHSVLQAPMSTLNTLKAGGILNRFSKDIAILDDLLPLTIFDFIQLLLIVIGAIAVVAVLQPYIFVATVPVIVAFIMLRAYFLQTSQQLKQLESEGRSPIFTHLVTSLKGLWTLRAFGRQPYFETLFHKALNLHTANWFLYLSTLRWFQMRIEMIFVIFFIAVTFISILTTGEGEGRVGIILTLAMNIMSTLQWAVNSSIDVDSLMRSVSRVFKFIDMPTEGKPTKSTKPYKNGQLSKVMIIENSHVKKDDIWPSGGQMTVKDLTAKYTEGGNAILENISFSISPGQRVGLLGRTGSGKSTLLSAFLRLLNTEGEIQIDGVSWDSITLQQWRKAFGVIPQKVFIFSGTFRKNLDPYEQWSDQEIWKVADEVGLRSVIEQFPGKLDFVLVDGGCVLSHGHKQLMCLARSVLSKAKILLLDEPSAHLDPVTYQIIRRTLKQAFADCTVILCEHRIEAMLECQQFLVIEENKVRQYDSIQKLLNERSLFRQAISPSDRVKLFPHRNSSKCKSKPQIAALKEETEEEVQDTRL
smiles,measurement,setting,value
CC1=CC(=O)c2c(O)cccc2C1=O [plumbagin],pIC50,[1],~4.90
same,pIC50,[2],5.41
